Results from patent publication US20100048950A1 (BOEHRINGER INGELHEIM INTERNATIONAL GMBH, priority 2007, published 2010).

How the values were obtained:
[1] = target: T1, human glucocorticoid receptor (GR) complex (Homo sapiens, UniProt P04150); assay: Glucocorticoid receptor competitive binding assay (fluorescence polarization); settings: competition with TAMRA-labeled dexamethasone, read-out: potent activity (IC50) in the GR binding assay
T1 construct: made in house; host or cells: insect expression system (baculovirus lysate)
T1 sequence (P04150 1-777): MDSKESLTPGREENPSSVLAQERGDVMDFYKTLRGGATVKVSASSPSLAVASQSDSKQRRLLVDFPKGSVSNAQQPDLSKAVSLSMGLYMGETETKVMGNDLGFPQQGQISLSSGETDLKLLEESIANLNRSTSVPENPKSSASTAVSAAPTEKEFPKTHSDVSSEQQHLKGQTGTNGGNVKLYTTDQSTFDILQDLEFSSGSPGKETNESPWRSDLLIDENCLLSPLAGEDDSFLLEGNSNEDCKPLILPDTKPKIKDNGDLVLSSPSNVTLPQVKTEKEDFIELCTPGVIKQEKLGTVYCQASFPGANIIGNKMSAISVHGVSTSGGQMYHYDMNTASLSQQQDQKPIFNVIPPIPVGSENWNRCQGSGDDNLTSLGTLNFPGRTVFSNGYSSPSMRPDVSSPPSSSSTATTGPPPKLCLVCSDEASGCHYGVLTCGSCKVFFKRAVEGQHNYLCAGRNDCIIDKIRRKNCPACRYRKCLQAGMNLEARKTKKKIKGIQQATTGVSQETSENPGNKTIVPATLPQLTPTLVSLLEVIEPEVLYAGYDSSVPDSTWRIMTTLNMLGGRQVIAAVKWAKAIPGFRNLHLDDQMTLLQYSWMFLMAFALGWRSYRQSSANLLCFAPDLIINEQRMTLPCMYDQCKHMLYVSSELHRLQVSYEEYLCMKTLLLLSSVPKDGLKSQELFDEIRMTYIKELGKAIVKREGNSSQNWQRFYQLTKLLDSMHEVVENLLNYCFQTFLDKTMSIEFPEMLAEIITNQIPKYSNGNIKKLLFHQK
How it was run: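 Human GR complex in baculovirus insect-cell lysate (1:170) competed against 15 nM TAMRA-dexamethasone stock for 1 h at room temperature. Buffer: TES/KCl/molybdate/EDTA/CHAPS/glycerol/DTT, pH 7.4, 1% DMSO final. FP read at 550/580 nm; IC50 from 4-parameter logistic fit.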

[2] = system: glucocorticoid receptor; assay: Agonist activity in one or more of the above assays (GR cell assays); type: cell-based; settings: in one or more of the above assays (assay not specified)
Procedure: Dexamethasone, a synthetic ligand to the glucocorticoid receptor (GR), induces expression of aromatase in human foreskin fibroblast cells. The activity of aromatase is measured by the conversion of testosterone to estradiol in culture media.
Human foreskin fibroblast cells (ATCC Cat. No. CRL-2429, designation CCD112SK) are plated on 96 well plates at 50,000 cells per well 5 days before use, in Iscove's Modified Dulbecco's Media (GibcoBRL Life Technologies Cat No. 12440-053) supplemented with 10% charcoal filtered FBS (Clonetech Cat No. SH30068) and Gentamycin (GibcoBRL Life Technologies Cat. No. 15710-064). On the day of the experiment, the media in the wells is replaced with fresh media. Cells are treated with test compounds to final concentrations of 10^−5 M to […], and testosterone to a final concentration of 300 ng/mL. Each well has a total volume of 100 μL. Samples are made in duplicates. Control wells include: (a) wells that receive testosterone only, and (b) wells that receive testosterone plus 2 μM of dexamethasone to provide maximum induction of aromatase. Plates are incubated at 37° C. overnight (15 to 18 hours), and supernatants are harvested at the end of incubation. Estradiol in the supernatant is measured using ELISA kits for estradiol (made by ALPCO, obtained from American Laboratory Products Cat. No. 020-DR-2693) according to the manufacture's instruction. The amount of estradiol is inversely proportional to the ELISA signals in each well. The extent of aromatase induction by test compounds is expressed as a relative percentage to dexamethasone. EC50 values of test compounds are derived by non-linear curve fitting.
Human foreskin fibroblast cells produce IL-6 in response to stimulation by pro-inflammatory cytokine IL-1.
Human foreskin fibroblast cells (ATCC Cat. No. CRL-2429) are plated on 96 well plates at 5,000 cells per well the day before use, in Iscove's Modified Dulbecco's Media (GibcoBRL Life Technologies Cat. No. 12440-053) supplemented with 10% charcoal filtered FBS (Clonetech Cat. No. SH30068) and Gentamycin (GibcoBRL Life Technologies Cat. No. 15710-064). On the next day, media in the wells is replaced with fresh media. Cells are treated with IL-1 (rhIL-1α, R&D Systems Cat. No. 200-LA) to a final concentration of 1 ng/mL, and with test compounds to final concentrations of 10^−5 M to 10^−8 M, in a total volume of 200 μL per well. Samples are done in duplicates. […] Positive control wells receive IL-1 only and represent maximum (or 100%) amount of IL-6 production. Plates are incubated at 37° C. overnight (15 to 18 hours), and supernatants are harvested at the end of incubation. IL-6 levels in the supernatants are determined by the ELISA kits for IL-6 (MedSystems Diagnostics GmbH, Vienna, Austria, Cat. No. BMS213TEN) according to manufacture's instructions. The extent of inhibition of IL-6 by test compounds is expressed in percentage relative to positive controls. IC50 values of test compounds are derived by non-linear curve fitting.
Evaluation of agonist or antagonist activity of compounds binding to the glucocorticoid receptor may be determined by any of the assays.
Testing of compounds for agonist or antagonist activity in induction of tyrosine aminotransferase (TAT) in rat hepatoma cells.
H4-II-E-C3 cells were incubated overnight in 96 well plates (20,000 cells/100 μL/well) in MEM medium containing 10% heat inactivated FBS and 1% nonessential amino acids. On the next day, cells were stimulated with the indicated concentrations of dexamethasone or test compound (dissolved in DMSO, final DMSO concentration 0.2%) for 18 hours. Control cells were treated with 0.2% DMSO. After 18 hours, the cells were lysed in a buffer containing 0.1% Triton X-100 and the TAT activity was measured in a photometric assay using tyrosine and alpha-ketoglutarate as substrates. […]

With `CC[C@@H](CNc1ccc(C)cc1C)NS(=O)(=O)c1c(N)cc(Cl)cc1Cl` the melting point was 151 °C.

With `CC[C@@H](CNc1cccc2ccccc12)NS(=O)(=O)c1c(N)cc(Cl)cc1Cl` [2-Amino-4,6-dichloro-N-[(S)-1-(naphthalen-1-ylaminomethyl)propyl]benzenesulfonamide] the IC50 [1] was no more than 0.1 µM and the “activity as an agonist of the glucocorticoid receptor function” value (shortened to “activity”) [2] was “activity as an agonist”.

With `Cc1cc(C)c(S(=O)(=O)NC(CNc2cccc3c(C#N)cccc23)C(F)(F)F)c(C)c1` (stereo not shown) [N-{1-[(5-Cyanonephthalen-1-ylamino)methyl]-2,2,2-trifluoroethyl}-2,4,6-trimethyl-benzenesulfonamide] the IC50 [1] was no more than 0.1 µM and the “activity” value [2] was “activity as an agonist”.

For `Cc1cc(C)c(S(=O)(=O)NC(CNc2cccc3ccccc23)C(F)(F)F)c(C)c1` (stereo not shown) [2,4,6-Trimethyl-N-[2,2,2-trifluoro-1-(naphthalen-1-ylaminomethyl)ethyl]benzenesulfonamide], the IC50 [1] was no more than 0.1 µM and the “activity” value [2] was “activity as an agonist”.

In the case of `Cc1cc(C)c(S(=O)(=O)NC(CNc2ccc(Cl)c3ccccc23)C(F)(F)F)c(C)c1` (stereo not shown) [N-{1-[(4-Chloronaphthalen-1-ylamino)methyl]-2,2,2-trifluoroethyl}-2,4,6-trimethylbenzenesulfonamide], the IC50 [1] is reported as no more than 0.1 µM and the “activity” value [2] is reported as “activity as an agonist”.

In the case of `CC[C@@H](CNc1ccc(C)cc1C)NS(=O)(=O)c1c(N)cc(Cl)cc1Cl` [2-Amino-4,6-dichloro-N—{(S)-1-[(2,4-dimethylphenylamino)methyl]propyl}benzenesulfonamide], the IC50 [1] is reported as no more than 0.1 µM and the “activity” value [2] is reported as “activity as an agonist”.

With `Cc1cc(C)c(S(=O)(=O)NC(CSc2cccc3ccccc23)C(F)(F)F)c(C)c1` (stereo not shown) [2,4,6-Trimethyl-N-[2,2,2-trifluoro-1-(naphthalen-1-ylsulfanylmethyl)ethyl]benzenesulfonamide] the IC50 [1] was no more than 0.1 µM and the “activity” value [2] was “activity as an agonist”.
